Our source for the IC50 values is US20130072470A1 (ABBVIE INC., priority 2011, published 2013).

Bounds are passed on as bounds.

The target of one experiment is T1, Jak3 enzyme (aa 811-1103) (Homo sapiens, UniProt P52333).
T1 construct: Jak3 enzyme (aa 811-1103); expressed in SF9 cells as a GST fusion; GST; made in house; host or cells: SF9 insect cells
T1 sequence (P52333 811-1103): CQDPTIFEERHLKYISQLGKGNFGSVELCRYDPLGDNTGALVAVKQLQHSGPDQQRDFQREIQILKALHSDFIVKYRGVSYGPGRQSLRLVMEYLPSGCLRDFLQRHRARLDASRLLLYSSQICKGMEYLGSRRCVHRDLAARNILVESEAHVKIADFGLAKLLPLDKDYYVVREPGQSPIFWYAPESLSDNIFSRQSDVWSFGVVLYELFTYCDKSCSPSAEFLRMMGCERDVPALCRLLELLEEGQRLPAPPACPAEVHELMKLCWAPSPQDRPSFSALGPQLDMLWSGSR
The experiment in a line: In vitro Jak3 kinase activity measured by time-resolved fluorescence resonance energy transfer (trFRET). It counts as biochemical. The conditions noted are these: ATP 0.001 mM. The procedure: In Vitro Jak3 Kinase Activity Measured by Time-Resolved Fluorescence Resonance Energy Transfer (trFRET)
Varying concentrations of inhibitor were added to an assay well containing: Jak3 enzyme (aa 811-1103; expressed in SF9 cells as a GST fusion and purified by glutathione affinity chromatography; 3 nM), peptide substrate (biotin-TYR2, Sequence: Biotin-(Ahx)-AEEEYFFLFA-amide; 2 μM), MOPSO pH 6.5 (50 mM), MgCl2 (10 mM), MnCl2 (2 mM), DTT (2.5 mM), BSA (0.01% w/v), Na3VO4 (0.1 mM) and ATP (0.001 mM). After about 60 min incubation at rt, the reaction was quenched by addition of EDTA (final concentration: 100 mM) and developed by addition of revelation reagents (final approximate concentrations: 30 mM HEPES pH 7.0, 0.06% BSA, 0.006% Tween-20, 0.24 M KF, 80 ng/mL PT66K (europium labeled anti-phosphotyrosine antibody cat #61T66KLB Cisbio, Bedford, Mass.) and 0.8 μg/mL SAXL (Phycolink streptavidin-allophycocyanin acceptor, cat #PJ52S, Prozyme, San Leandro, Calif.). The developed reaction was incubated in the dark either at about 4° C., for about 14 h or for about 60 min at rt, then read via a time-resolved fluorescence detector (Rubystar, BMG) using a 337 nm laser for excitation and emission wavelength of 665 nm. Within the linear range of the assay, the observed signal at 665 nm is directly related to phosphorylated product and used to calculate the IC50 values.
As to “1-((1R,3S,4R)-3-(3H-imidazo[1,2-a]pyrrolo[2,3-e]pyrazin-8-yl)-4-methylcyclopentyl)methyl)azetidine-3-carbonitrile and 1-(((1S,3S,4R)-3-(3H-imidazo[1,2-a]pyrrolo[2,3-e]pyrazin-8-yl)-4-methylcyclopentyl)methyl)azetidine-3-carbonitrile [Example #7]”, the IC50 is above 10 µM.
The same measure, in the same setting: then `C[C@@H]1CN(C(=O)NCC(F)F)C[C@@H]1c1cnc2cnc3[nH]ccc3n12` [Example 09, (3R,4S)—N-(2,2-difluoroethyl)-3-(3H-imidazo[1,2-a]pyrrolo[2,3-e]pyrazin-8-yl)-4-methylpyrrolidine-1-carboxamide], with 1 to 10 µM; and `Cc1cnc(C(=O)N[C@H]2C[C@@H](C)[C@@H](c3cnc4cnc5[nH]ccc5n34)C2)cn1` [Example #1, N-((1S,3S,4R)-3-(3H-imidazo[1,2-a]pyrrolo[2,3-e]pyrazin-8-yl)-4-methylcyclopentyl)-5-methylpyrazine-2-carboxamide], with above 10 µM.
The same measure, in the same setting: then `C[C@@H]1C[C@H](NC(=O)c2cccnn2)C[C@@H]1c1cnc2cnc3[nH]ccc3n12` [Example #2, N-((1S,3S,4R)-3-(3H-imidazo[1,2-a]pyrrolo[2,3-e]pyrazin-8-yl)-4-methylcyclopentyl)pyridazine-3-carboxamide], with above 10 µM.
The same measure, in the same setting: in the case of `C[C@@H]1C[C@H](N(C)C(=O)c2cocn2)C[C@@H]1c1cnc2cnc3[nH]ccc3n12` [Example #3, N-((1S,3S,4R)-3-(3H-imidazo[1,2-a]pyrrolo[2,3-e]pyrazin-8-yl)-4-methylcyclopentyl)-N-methyloxazole-4-carboxamide] it was 1 to 10 µM.
The compound `C[C@@H]1C[C@H](NCc2cnc(C(F)(F)F)nc2)C[C@@H]1c1cnc2cnc3[nH]ccc3n12` [Example #4, (1S,3S,4R)-3-(3H-imidazo[1,2-a]pyrrolo[2,3-e]pyrazin-8-yl)-4-methyl-N-((2-(trifluoromethyl)pyrimidin-5-yl)methyl)cyclopentylamine] had an IC50 above 10 µM.
In the case of `C[C@@H]1C[C@H](N2CCC(C#N)CC2)C[C@@H]1c1cnc2cnc3[nH]ccc3n12` [Example #5, 1-((1S,3S,4R)-3-(3H-imidazo[1,2-a]pyrrolo[2,3-e]pyrazin-8-yl)-4-methylcyclopentyl)piperidine-4-carbonitrile], the IC50 was above 10 µM.
Take `CC[C@@H]1C[C@@H](C(=O)NCC(F)(F)F)C[C@@H]1c1nnc2cnc3[nH]ccc3n12` [Example #6, (1R,3R,4S)-3-ethyl-4-(6H-pyrrolo[2,3-e][1,2,4]triazolo[4,3-a]pyrazin-1-yl)-N-(2,2,2-trifluoroethyl)cyclopentanecarboxamide]: the IC50 is above 10 µM.
Still for that read-out and setting: then `C[C@@H]1C[C@@H](N2CCC(C#N)CC2)C[C@@H]1c1cnc2cnc3[nH]ccc3n12` [Example #8, 1-((1R,3S,4R)-3-(3H-imidazo[1,2-a]pyrrolo[2,3-e]pyrazin-8-yl)-4-methylcyclopentyl)piperidine-4-carbonitrile], with above 10 µM; and `C[C@@H]1C[C@H](CCC#N)C[C@@H]1c1nnc2cnc3[nH]ccc3n12` [Example #9, 3-((1S,3R,4S)-3-methyl-4-(6H-pyrrolo[2,3-e][1,2,4]triazolo[4,3-a]pyrazin-1-yl)cyclopentyl)propanenitrile], with above 10 µM.
`C[C@@H]1C[C@@H](CCC#N)C[C@@H]1c1nnc2cnc3[nH]ccc3n12` [Example #10, 3-((1R,3R,4S)-3-methyl-4-(6H-pyrrolo[2,3-e][1,2,4]triazolo[4,3-a]pyrazin-1-yl)cyclopentyl)propanenitrile] showed an IC50 of 1 to 10 µM.
As to `C[C@@H]1C[C@@H](CCC#N)C[C@@H]1n1nnc2cnc3[nH]ccc3c21` [Example #11, 3-((1R,3R,4S)-3-methyl-4-(pyrrolo[2,3-b][1,2,3]triazolo[4,5-d]pyridin-1(6H)-yl)cyclopentyl)propanenitrile], the IC50 lay within 1 to 10 µM.
The compound `CC[C@@H]1CN(C(=O)CCCC#N)C[C@@H]1c1cnc2cnc3[nH]ccc3n12` [Example #12] displayed an IC50 of 1 to 10 µM.
On the same count and under the same terms, in the case of `CC[C@@H]1CN(C(=O)NCCF)C[C@@H]1c1cnc2cnc3[nH]ccc3n12` [Example #13, (3S,4R)-3-ethyl-N-(2-fluoroethyl)-4-(3H-imidazo[1,2-a]pyrrolo[2,3-e]pyrazin-8-yl)pyrrolidine-1-carboxamide] it was 1 to 10 µM; in that of `CC[C@@H]1CN(C(=O)NCC(F)F)C[C@@H]1c1cnc2cnc3[nH]ccc3n12` [Example #14, (3S,4R)—N-(2,2-difluoroethyl)-3-ethyl-4-(3H-imidazo[1,2-a]pyrrolo[2,3-e]pyrazin-8-yl)pyrrolidine-1-carboxamide], 1 to 10 µM; in that of `CC[C@@H]1CN(C(=O)CCC(F)(F)F)C[C@@H]1c1cnc2cnc3[nH]ccc3n12` [Example #15, 1-((3S,4R)-3-ethyl-4-(3H-imidazo[1,2-a]pyrrolo[2,3-e]pyrazin-8-yl)pyrrolidin-1-yl)-4,4,4-trifluorobutan-1-one], 1 to 10 µM.
Still for that read-out and setting: in the case of `CC[C@@H]1CN(C(=O)NCC(C)(F)F)C[C@@H]1c1cnc2cnc3[nH]ccc3n12` [Example #16, (3S,4R)—N-(2,2-difluoropropyl)-3-ethyl-4-(3H-imidazo[1,2-a]pyrrolo[2,3-e]pyrazin-8-yl)pyrrolidine-1-carboxamide] it was above 10 µM; in that of `CC[C@@H]1CN(C(=O)NC2CCC2)C[C@@H]1c1cnc2cnc3[nH]ccc3n12` [Example #17, (3S,4R)—N-cyclobutyl-3-ethyl-4-(3H-imidazo[1,2-a]pyrrolo[2,3-e]pyrazin-8-yl)pyrrolidine-1-carboxamide], above 10 µM; in that of `C[C@@H]1CN(C(=O)NCC(F)(F)F)C[C@@H]1c1cnc2cnc3[nH]ccc3n12` [Example #18, (3S,4R)-3-methyl-4-(3H-imidazo[1,2-a]pyrrolo[2,3-e]pyrazin-8-yl)-N-(2,2,2-trifluoroethyl)pyrrolidine-1-carboxamide], above 10 µM.
The same measure, in the same setting: then `C[C@@H]1CN(C(=O)N2CCOCC2)C[C@@H]1c1cnc2cnc3[nH]ccc3n12` [Example #20, ((3R,4S)-3-(3H-imidazo[1,2-a]pyrrolo[2,3-e]pyrazin-8-yl)-4-methylpyrrolidin-1-yl)(morpholino)methanone], with above 10 µM.
In the case of `C[C@@H]1CN(C(=O)CC2CC2)C[C@@H]1c1cnc2cnc3[nH]ccc3n12` [Example #21, 1-((3R,4S)-3-(3H-imidazo[1,2-a]pyrrolo[2,3-e]pyrazin-8-yl)-4-methylpyrrolidin-1-yl)-2-cyclopropylethanone], the IC50 is 1 to 10 µM.
Still for that read-out and setting: then `CC[C@@H]1C[C@H](CCC#N)C[C@@H]1c1nnc2cnc3[nH]ccc3n12` [Example #22, 3-((1S,3R,4S)-3-ethyl-4-(6H-pyrrolo[2,3-e][1,2,4]triazolo[4,3-a]pyrazin-1-yl)cyclopentyl)propanenitrile], with 1 to 10 µM.
Regarding `CC[C@@H]1C[C@@H](CCC#N)C[C@@H]1c1nnc2cnc3[nH]ccc3n12` [Example #23, 3-((1R,3R,4S)-3-ethyl-4-(6H-pyrrolo[2,3-e][1,2,4]triazolo[4,3-a]pyrazin-1-yl)cyclopentyl)propanenitrile], the half-maximal inhibitory concentration (IC50) was in the range of 1 to 10 µM.
The same measure, in the same setting: then `CC[C@@H]1C[C@H](NC(=O)c2coc(C)n2)C[C@@H]1c1nnc2cnc3[nH]ccc3n12` [Example #24, N-((1S,3R,4S)-3-ethyl-4-(6H-pyrrolo[2,3-e][1,2,4]triazolo[4,3-a]pyrazin-1-yl)cyclopentyl)-2-methyloxazole-4-carboxamide], with 1 to 10 µM.

The same experiment, now with this note: ATP 0.001 mM, Table B.
In turn, `CC[C@@H]1C[C@H](NC(=O)/C=C/c2ccc(C)o2)C[C@@H]1c1nnc2cnc3[nH]ccc3n12` [compound 25, (E)-N-((1S,3R,4S)-3-ethyl-4-(6H-pyrrolo[2,3-e][1,2,4]triazolo[4,3-a]pyrazin-1-yl)cyclopentyl)-3-(5-methylfuran-2-yl)acrylamide] yielded an IC50 of 1 to 10 µM.
For `CC[C@@H]1C[C@H](NC(=O)COc2cc(C)on2)C[C@@H]1c1nnc2cnc3[nH]ccc3n12` [compound 26, N-((1S,3R,4S)-3-ethyl-4-(6H-pyrrolo[2,3-e][1,2,4]triazolo[4,3-a]pyrazin-1-yl)cyclopentyl)-2-(5-methylisoxazol-3-yloxy)acetamide], the IC50 was above 10 µM.
The same measure, in the same setting: then `CC[C@@H]1C[C@H](NC(=O)CN(C)C(=O)c2ccco2)C[C@@H]1c1nnc2cnc3[nH]ccc3n12` [compound 27, N-(2-((1S,3R,4S)-3-ethyl-4-(6H-pyrrolo[2,3-e][1,2,4]triazolo[4,3-a]pyrazin-1-yl)cyclopentylamino)-2-oxoethyl)-N-methylfuran-2-carboxamide], with above 10 µM; and `CC[C@@H]1C[C@H](NC(=O)CCC2NC(=O)NC2=O)C[C@@H]1c1nnc2cnc3[nH]ccc3n12` (stereo partly drawn) [compound 28, 3-(2,5-dioxoimidazolidin-4-yl)-N-((1S,3R,4S)-3-ethyl-4-(6H-pyrrolo[2,3-e][1,2,4]triazolo[4,3-a]pyrazin-1-yl)cyclopentyl)propanamide], with 1 to 10 µM.
